ChEMBL document CHEMBL5252552, “Defined concatenated α6α1β3γ2 GABAA receptor constructs reveal dual action of pyrazoloquinolinone allosteric modulators” (Bioorg Med Chem, 2019)

Assays:
[1] = target: T1, Gamma-aminobutyric acid receptor subunit alpha-6/beta-3/gamma-2 (Rattus norvegicus) (UniProt P18508+P30191+P63079); assay: Positive allosteric modulation of rat recombinant GABAA alpha6beta3alpha6-gamma2beta3 receptor expressed in Xenopus laevis oocytes assessed as maximal current under less potent phase in presence of GABA EC1 to 1.5 by two-electrode voltage-clamp assay relative to control; type: cell-based; details: Oocyte, filed as positive allosteric modulator
[2] = target: T1, Gamma-aminobutyric acid receptor subunit alpha-6/beta-3/gamma-2 (Rattus norvegicus); assay: Positive allosteric modulation of rat recombinant GABAA alpha6beta3gamma2 receptor expressed in Xenopus laevis oocytes assessed as maximal current at -80 mV holding potential under more potent phase in presence of GABA EC1 to 1.5 by two-electrode voltage-clamp assay relative to control; type: cell-based; details: Oocyte, filed as positive allosteric modulator
[3] = target: Gamma-aminobutyric acid receptor subunit alpha-1/beta-3/gamma-2 (Rattus norvegicus, UniProt P18508+P62813+P63079); assay: Positive allosteric modulation of rat recombinant GABAA alpha1beta3alpha1-gamma2beta3 receptor expressed in Xenopus laevis oocytes assessed as increase in GABA-induced current amplitude at -80 mV holding potential under less potent phase in presence of GABA EC1 to 1.5 by two-electrode voltage-clamp assay; type: cell-based, Oocyte
[4] = target: T2, Gamma-aminobutyric acid receptor subunit alpha-1/beta-3/gamma-2 (Rattus norvegicus) (UniProt P18508+P62813+P63079); assay: Positive allosteric modulation of rat recombinant GABAA alpha1beta3alpha1-gamma2beta3 receptor expressed in Xenopus laevis oocytes assessed as maximal current at -80 mV holding potential under less potent phase in presence of GABA EC1 to 1.5 by two-electrode voltage-clamp assay relative to control; type: cell-based; details: Oocyte, filed as positive allosteric modulator
[5] = target: T1, Gamma-aminobutyric acid receptor subunit alpha-6/beta-3/gamma-2 (Rattus norvegicus); assay: Positive allosteric modulation of rat recombinant GABAA alpha6beta3alpha6-gamma2beta3 receptor expressed in Xenopus laevis oocytes assessed as maximal efficacy at -80 mV holding potential at 100 nM in presence of GABA EC1 to 1.5 by two-electrode voltage-clamp assay; type: cell-based; details: Oocyte, filed as positive allosteric modulator
[6] = target: T1, Gamma-aminobutyric acid receptor subunit alpha-6/beta-3/gamma-2 (Rattus norvegicus); assay: Positive allosteric modulation of rat recombinant GABAA alpha6beta3alpha6-gamma2beta3 receptor expressed in Xenopus laevis oocytes assessed as maximal efficacy at -80 mV holding potential at 1 uM in presence of GABA EC1 to 1.5 by two-electrode voltage-clamp assay; type: cell-based; details: Oocyte, filed as positive allosteric modulator
[7] = target: T1, Gamma-aminobutyric acid receptor subunit alpha-6/beta-3/gamma-2 (Rattus norvegicus); assay: Positive allosteric modulation of rat recombinant GABAA alpha6beta3alpha6-gamma2beta3 receptor expressed in Xenopus laevis oocytes assessed as maximal efficacy at -80 mV holding potential at 3 uM in presence of GABA EC1 to 1.5 by two-electrode voltage-clamp assay; type: cell-based; details: Oocyte, filed as positive allosteric modulator
[8] = target: T1, Gamma-aminobutyric acid receptor subunit alpha-6/beta-3/gamma-2 (Rattus norvegicus); assay: Positive allosteric modulation of rat recombinant GABAA alpha6beta3alpha6-gamma2beta3 receptor expressed in Xenopus laevis oocytes assessed as maximal efficacy at -80 mV holding potential at 10 uM in presence of GABA EC1 to 1.5 by two-electrode voltage-clamp assay; type: cell-based; details: Oocyte, filed as positive allosteric modulator
[9] = target: T2, Gamma-aminobutyric acid receptor subunit alpha-1/beta-3/gamma-2 (Rattus norvegicus); assay: Positive allosteric modulation of rat recombinant GABAA alpha1beta3gamma2 receptor expressed in Xenopus laevis oocytes assessed as maximal efficacy at -80 mV holding potential at 30 nM in presence of GABA EC1 to 1.5 by two-electrode voltage-clamp assay; type: cell-based; details: Oocyte
[10] = target: T2, Gamma-aminobutyric acid receptor subunit alpha-1/beta-3/gamma-2 (Rattus norvegicus); assay: Positive allosteric modulation of rat recombinant GABAA alpha1beta3gamma2 receptor expressed in Xenopus laevis oocytes assessed as maximal efficacy at -80 mV holding potential at 10 nM in presence of GABA EC1 to 1.5 by two-electrode voltage-clamp assay; type: cell-based; details: Oocyte
[11] = target: T2, Gamma-aminobutyric acid receptor subunit alpha-1/beta-3/gamma-2 (Rattus norvegicus); assay: Positive allosteric modulation of rat recombinant GABAA alpha1beta3alpha1-gamma2beta3 receptor expressed in Xenopus laevis oocytes assessed as maximal efficacy at -80 mV holding potential at 30 nM in presence of GABA EC1 to 1.5 by two-electrode voltage-clamp assay; type: cell-based; details: Oocyte
[12] = target: T2, Gamma-aminobutyric acid receptor subunit alpha-1/beta-3/gamma-2 (Rattus norvegicus); assay: Positive allosteric modulation of rat recombinant GABAA alpha1beta3gamma2 receptor expressed in Xenopus laevis oocytes assessed as maximal efficacy at -80 mV holding potential at 300 nM in presence of GABA EC1 to 1.5 by two-electrode voltage-clamp assay; type: cell-based; details: Oocyte
[13] = target: T2, Gamma-aminobutyric acid receptor subunit alpha-1/beta-3/gamma-2 (Rattus norvegicus); assay: Positive allosteric modulation of rat recombinant GABAA alpha1beta3gamma2 receptor expressed in Xenopus laevis oocytes assessed as maximal efficacy at -80 mV holding potential at 3 uM in presence of GABA EC1 to 1.5 by two-electrode voltage-clamp assay; type: cell-based; details: Oocyte, filed as positive allosteric modulator
[14] = target: T3, Gamma-aminobutyric acid receptor subunit alpha-1/alpha-6/beta-3/gamma-2 (Rattus norvegicus) (UniProt P18508+P30191+P62813+P63079); assay: Positive allosteric modulation of rat recombinant GABAA gamma2beta3alpha1-beta3alpha6 receptor expressed in Xenopus laevis oocytes assessed as maximal efficacy at -80 mV holding potential at 100 nM in presence of GABA EC1 to 1.5 by two-electrode voltage-clamp assay; type: cell-based; details: Oocyte, filed as positive allosteric modulator
[15] = target: T3, Gamma-aminobutyric acid receptor subunit alpha-1/alpha-6/beta-3/gamma-2 (Rattus norvegicus); assay: Positive allosteric modulation of rat recombinant GABAA gamma2beta3alpha1-beta3alpha6 receptor expressed in Xenopus laevis oocytes assessed as maximal efficacy at -80 mV holding potential at 300 nM in presence of GABA EC1 to 1.5 by two-electrode voltage-clamp assay; type: cell-based; details: Oocyte, filed as positive allosteric modulator
[16] = target: T3, Gamma-aminobutyric acid receptor subunit alpha-1/alpha-6/beta-3/gamma-2 (Rattus norvegicus); assay: Positive allosteric modulation of rat recombinant GABAA gamma2beta3alpha1-beta3alpha6 receptor expressed in Xenopus laevis oocytes assessed as maximal efficacy at -80 mV holding potential at 1 uM in presence of GABA EC1 to 1.5 by two-electrode voltage-clamp assay; type: cell-based; details: Oocyte, filed as positive allosteric modulator
[17] = target: T3, Gamma-aminobutyric acid receptor subunit alpha-1/alpha-6/beta-3/gamma-2 (Rattus norvegicus); assay: Positive allosteric modulation of rat recombinant GABAA gamma2beta3alpha1-beta3alpha6 receptor expressed in Xenopus laevis oocytes assessed as maximal efficacy at -80 mV holding potential at 3 uM in presence of GABA EC1 to 1.5 by two-electrode voltage-clamp assay; type: cell-based; details: Oocyte, filed as positive allosteric modulator
[18] = target: T1, Gamma-aminobutyric acid receptor subunit alpha-6/beta-3/gamma-2 (Rattus norvegicus); assay: Positive allosteric modulation of rat recombinant GABAA alpha6beta3gamma2 receptor expressed in Xenopus laevis oocytes assessed as maximal efficacy at -80 mV holding potential at 1 nM in presence of GABA EC1 to 1.5 by two-electrode voltage-clamp assay; type: cell-based; details: Oocyte
[19] = target: T1, Gamma-aminobutyric acid receptor subunit alpha-6/beta-3/gamma-2 (Rattus norvegicus); assay: Positive allosteric modulation of rat recombinant GABAA alpha6beta3gamma2 receptor expressed in Xenopus laevis oocytes assessed as maximal efficacy at -80 mV holding potential at 100 nM in presence of GABA EC1 to 1.5 by two-electrode voltage-clamp assay; type: cell-based; details: Oocyte, filed as positive allosteric modulator
[20] = target: T1, Gamma-aminobutyric acid receptor subunit alpha-6/beta-3/gamma-2 (Rattus norvegicus); assay: Positive allosteric modulation of rat recombinant GABAA alpha6beta3gamma2 receptor expressed in Xenopus laevis oocytes assessed as maximal efficacy at -80 mV holding potential at 3 uM in presence of GABA EC1 to 1.5 by two-electrode voltage-clamp assay; type: cell-based; details: Oocyte, filed as positive allosteric modulator
[21] = target: T1, Gamma-aminobutyric acid receptor subunit alpha-6/beta-3/gamma-2 (Rattus norvegicus); assay: Positive allosteric modulation of rat recombinant GABAA alpha6beta3gamma2 receptor expressed in Xenopus laevis oocytes assessed as maximal efficacy at -80 mV holding potential at 10 uM in presence of GABA EC1 to 1.5 by two-electrode voltage-clamp assay; type: cell-based; details: Oocyte, filed as positive allosteric modulator
[22] = target: T3, Gamma-aminobutyric acid receptor subunit alpha-1/alpha-6/beta-3/gamma-2 (Rattus norvegicus); assay: Positive allosteric modulation of rat recombinant GABAA alpha6beta3alpha1-gamma2beta3 receptor expressed in Xenopus laevis oocytes assessed as maximal efficacy at -80 mV holding potential at 10 nM in presence of GABA EC1 to 1.5 by two-electrode voltage-clamp assay; type: cell-based; details: Oocyte
[23] = target: T3, Gamma-aminobutyric acid receptor subunit alpha-1/alpha-6/beta-3/gamma-2 (Rattus norvegicus); assay: Positive allosteric modulation of rat recombinant GABAA alpha6beta3alpha1-gamma2beta3 receptor expressed in Xenopus laevis oocytes assessed as maximal efficacy at -80 mV holding potential at 1 uM in presence of GABA EC1 to 1.5 by two-electrode voltage-clamp assay; type: cell-based; details: Oocyte, filed as positive allosteric modulator
[24] = target: T3, Gamma-aminobutyric acid receptor subunit alpha-1/alpha-6/beta-3/gamma-2 (Rattus norvegicus); assay: Positive allosteric modulation of rat recombinant GABAA alpha6beta3alpha1-gamma2beta3 receptor expressed in Xenopus laevis oocytes assessed as maximal efficacy at -80 mV holding potential at 10 uM in presence of GABA EC1 to 1.5 by two-electrode voltage-clamp assay; type: cell-based; details: Oocyte, filed as positive allosteric modulator

Chain of Gamma-aminobutyric acid receptor subunit alpha-1/beta-3/gamma-2 (P18508 whole entry): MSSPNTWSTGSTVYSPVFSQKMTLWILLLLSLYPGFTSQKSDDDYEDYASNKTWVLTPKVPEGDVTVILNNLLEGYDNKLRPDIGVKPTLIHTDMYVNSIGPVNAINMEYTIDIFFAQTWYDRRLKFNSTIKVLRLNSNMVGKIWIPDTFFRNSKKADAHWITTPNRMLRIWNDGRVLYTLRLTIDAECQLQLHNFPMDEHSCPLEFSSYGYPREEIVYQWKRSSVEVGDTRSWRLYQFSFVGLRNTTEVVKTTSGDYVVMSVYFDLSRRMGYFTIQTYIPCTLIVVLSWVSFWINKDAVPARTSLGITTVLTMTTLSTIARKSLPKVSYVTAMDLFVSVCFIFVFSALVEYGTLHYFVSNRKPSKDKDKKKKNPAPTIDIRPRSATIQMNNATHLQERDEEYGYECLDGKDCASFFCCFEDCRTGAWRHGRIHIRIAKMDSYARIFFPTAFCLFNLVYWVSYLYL
Chain of Gamma-aminobutyric acid receptor subunit alpha-1/beta-3/gamma-2 (P62813 whole entry): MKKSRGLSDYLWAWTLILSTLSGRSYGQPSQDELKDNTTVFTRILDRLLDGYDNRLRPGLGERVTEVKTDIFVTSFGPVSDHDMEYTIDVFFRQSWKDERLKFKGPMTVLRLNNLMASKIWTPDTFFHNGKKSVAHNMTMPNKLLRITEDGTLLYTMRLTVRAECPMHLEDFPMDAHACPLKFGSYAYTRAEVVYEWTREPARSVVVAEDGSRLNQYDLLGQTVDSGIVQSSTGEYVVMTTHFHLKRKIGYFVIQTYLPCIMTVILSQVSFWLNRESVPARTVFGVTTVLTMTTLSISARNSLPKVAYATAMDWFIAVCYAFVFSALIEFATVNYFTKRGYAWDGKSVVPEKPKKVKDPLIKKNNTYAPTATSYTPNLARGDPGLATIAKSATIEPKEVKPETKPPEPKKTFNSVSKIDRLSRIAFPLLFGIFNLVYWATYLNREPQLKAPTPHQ
Chain of Gamma-aminobutyric acid receptor subunit alpha-1/beta-3/gamma-2 (P63079 whole entry): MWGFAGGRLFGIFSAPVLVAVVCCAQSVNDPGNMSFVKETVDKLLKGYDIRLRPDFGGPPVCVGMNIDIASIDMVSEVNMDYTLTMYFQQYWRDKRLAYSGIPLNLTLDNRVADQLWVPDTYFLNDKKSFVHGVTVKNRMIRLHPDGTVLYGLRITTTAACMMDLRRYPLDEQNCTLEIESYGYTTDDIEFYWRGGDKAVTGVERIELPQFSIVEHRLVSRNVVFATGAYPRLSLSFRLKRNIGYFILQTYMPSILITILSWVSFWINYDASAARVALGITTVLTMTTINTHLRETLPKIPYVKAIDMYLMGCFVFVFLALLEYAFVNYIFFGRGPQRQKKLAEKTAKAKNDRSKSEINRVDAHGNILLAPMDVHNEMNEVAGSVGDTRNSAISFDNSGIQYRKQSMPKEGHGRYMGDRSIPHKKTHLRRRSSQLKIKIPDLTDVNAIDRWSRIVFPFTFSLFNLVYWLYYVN

COc1ccc(-n2nc3c4ccc(Br)cc4[nH]cc-3c2=O)cc1
%max [1]: 657%
%max [2]: 70%
EC50 [3]: 10 µM
%max [4]: 342%
Efficacy [5]: 101%
Efficacy [6]: 196%
Efficacy [7]: 320%
Efficacy [8]: 621%
Efficacy [9]: 2%
Efficacy [10]: 1%
Efficacy [11]: 5%
Efficacy [12]: 11%
Efficacy [13]: 54%
Efficacy [14]: 45%
Efficacy [15]: 48%
Efficacy [16]: 80%
Efficacy [17]: 89%
Efficacy [18]: 9%
Efficacy [19]: 46%
Efficacy [20]: 377%
Efficacy [21]: 585%
Efficacy [22]: 2%
Efficacy [23]: 144%
Efficacy [24]: 662%
